From ChEMBL document CHEMBL3044986, “Synthesis of 1-(4-aminosulfonylphenyl)-3,5-diarylpyrazoline derivatives as potent antiinflammatory and antimicrobial agents” (2012)
Converted amounts (≈) assume the structure as drawn. The source made the active and inactive calls. The calls are words filed in the database; no cut-off is given here.

Key:
Rattus norvegicus [1] = assay: Anti-inflammatory activity in Rattus norvegicus Wistar albino (rat) assessed as inhibition of carrageenan-induced paw edema at 50 mg/kg, po administered 30 min prior to carrageenan-challenge measured at 3 hr by plethysmometric analysis relative to control; format: functional
Bacillus subtilis [2] = assay: Antibacterial activity against Bacillus subtilis MTCC 121 at 4 mg/ml after 24 hr by agar well diffusion assay; format: functional; conditions: MTCC 121, 24 h, read-out: DIZ
Rattus norvegicus [3] = assay: Anti-inflammatory activity in Rattus norvegicus Wistar albino (rat) assessed as inhibition of carrageenan-induced paw edema at 50 mg/kg, po administered 30 min prior to carrageenan-challenge measured at 4 hr by plethysmometric analysis relative to control; format: functional
Bacillus subtilis [4] = assay: Antibacterial activity against Bacillus subtilis MTCC 121 after 24 hr by modified agar well diffusion assay; format: functional; conditions: MTCC 121, 24 h
Candida albicans [5] = assay: Antifungal activity against Candida albicans MTCC 227 after 24 hr by modified agar well diffusion assay; format: functional
Candida albicans [6] = assay: Antifungal activity against Candida albicans MTCC 227 at 4 mg/ml after 24 hr by agar well diffusion assay; format: functional; conditions: for zone of inhibition at 4000 µg/mL: MTCC 227, 24 h, read-out: DIZ
Rattus norvegicus [7] = assay: Anti-inflammatory activity in Rattus norvegicus Wistar albino (rat) assessed as inhibition of carrageenan-induced paw edema at 50 mg/kg, po administered 30 min prior to carrageenan-challenge measured at 1 hr by plethysmometric analysis relative to control; format: functional
Saccharomyces cerevisiae [8] = assay: Antifungal activity against Saccharomyces cerevisiae MTCC 170 after 24 hr by modified agar well diffusion assay; format: functional
Pseudomonas aeruginosa = assay: Antibacterial activity against Pseudomonas aeruginosa MTCC 741 at 4 mg/ml after 24 hr by agar well diffusion assay; format: functional, organism-based
Rattus norvegicus [9] = assay: Anti-inflammatory activity in Rattus norvegicus Wistar albino (rat) assessed as inhibition of carrageenan-induced paw edema at 50 mg/kg, po administered 30 min prior to carrageenan-challenge measured at 2 hr by plethysmometric analysis relative to control; format: functional
Staphylococcus aureus [10] = assay: Antibacterial activity against Staphylococcus aureus MTCC 96 at 4 mg/ml after 24 hr by agar well diffusion assay; format: functional; conditions: MTCC 96, 24 h, read-out: DIZ
Saccharomyces cerevisiae [11] = assay: Antifungal activity against Saccharomyces cerevisiae MTCC 170 at 4 mg/ml after 24 hr by agar well diffusion assay; format: functional; conditions: for zone of inhibition at 4000 µg/mL: MTCC 170, 24 h, read-out: DIZ
Escherichia coli = assay: Antibacterial activity against Escherichia coli MTCC 1652 at 4 mg/ml after 24 hr by agar well diffusion assay; format: functional, organism-based
Staphylococcus aureus [12] = assay: Antibacterial activity against Staphylococcus aureus MTCC 96 after 24 hr by modified agar well diffusion assay; format: functional; conditions: MTCC 96, 24 h
Rattus norvegicus [13] = assay: Anti-inflammatory activity in Rattus norvegicus Wistar albino (rat) assessed as inhibition of carrageenan-induced paw edema at 4 mg/kg, ip administered 30 min prior to carrageenan-challenge measured at 3 hr by plethysmometric analysis relative to control; format: functional; conditions: route intraperitoneal
Rattus norvegicus [14] = assay: Anti-inflammatory activity in Rattus norvegicus Wistar albino (rat) assessed as inhibition of carrageenan-induced paw edema at 4 mg/kg, ip administered 30 min prior to carrageenan-challenge measured at 2 hr by plethysmometric analysis relative to control; format: functional; conditions: route intraperitoneal
Rattus norvegicus [15] = assay: Anti-inflammatory activity in Rattus norvegicus Wistar albino (rat) assessed as inhibition of carrageenan-induced paw edema at 4 mg/kg, ip administered 30 min prior to carrageenan-challenge measured at 1 hr by plethysmometric analysis relative to control; format: functional; conditions: route intraperitoneal
Rattus norvegicus [16] = assay: Anti-inflammatory activity in Rattus norvegicus Wistar albino (rat) assessed as inhibition of carrageenan-induced paw edema at 4 mg/kg, ip administered 30 min prior to carrageenan-challenge measured at 4 hr by plethysmometric analysis relative to control; format: functional; conditions: route intraperitoneal

Row | Compound | MIC (Bacillus subtilis [4]) | MIC (Candida albicans [5]) | MIC (Saccharomyces cerevisiae [8]) | MIC (Staphylococcus aureus [12]) | inhibition in vivo at 50 mg/kg (Rattus norvegicus [1]) | zone of inhibition at 4000 µg/mL (Bacillus subtilis [2]) | inhibition in vivo at 50 mg/kg (Rattus norvegicus [3]) | diameter of the inhibition zone (DIZ) (Candida albicans [6]) | inhibition in vivo at 50 mg/kg (Rattus norvegicus [7]) | Activity (Pseudomonas aeruginosa) | inhibition in vivo at 50 mg/kg (Rattus norvegicus [9]) | zone of inhibition at 4000 µg/mL (Staphylococcus aureus [10]) | diameter of the inhibition zone (DIZ) (Saccharomyces cerevisiae [11]) | Activity (Escherichia coli) | further results
1 | C[C@@H]1[C@H](O)[C@@H](C)/C=C/C=C/C=C/C=C/C=C/C=C/C=C/[C@H](O[C@@H]2O[C@H](C)[C@@H](O)[C@H](N)[C@@H]2O)C[C@@H]2O[C@](O)(C[C@@H](O)C[C@@H](O)[C@H](O)CC[C@@H](O)C[C@@H](O)CC(=O)O[C@H]1C)C[C@H](O)[C@H]2C(=O)O [AMPHOTERICIN B] |  |  |  |  |  |  |  |  |  |  |  |  |  |  | MIC (Candida albicans [5]; MTCC 227, 24 h): 100 µg/mL (≈ 108 µM); zone of inhibition at 4000 µg/mL (Candida albicans [6]): 14.3 mm; MIC (Saccharomyces cerevisiae [8]; MTCC 170, 24 h): 100 µg/mL (≈ 108 µM); zone of inhibition at 4000 µg/mL (Saccharomyces cerevisiae [11]): 13.6 mm
2 | O=C(O)c1cn(C2CC2)c2cc(N3CCNCC3)c(F)cc2c1=O [CIPROFLOXACIN] | 5 µg/mL (≈ 15.1 µM) |  |  | 5 µg/mL (≈ 15.1 µM) |  | 24 mm |  |  |  |  |  | 26.6 mm |  |  | 
3 | COc1ccc2c(c1)c(CC(=O)O)c(C)n2C(=O)c1ccc(Cl)cc1 [INDOMETHACIN] |  |  |  |  |  |  |  |  |  |  |  |  |  |  | inhibition in vivo at 4 mg/kg (Rattus norvegicus [13]): 77.2%; inhibition in vivo at 4 mg/kg (Rattus norvegicus [14]): 81.9%; inhibition in vivo at 4 mg/kg (Rattus norvegicus [15]): 69.6%; inhibition in vivo at 4 mg/kg (Rattus norvegicus [16]): 74.7%

More lines, main results first:

Row | MIC (Bacillus subtilis [4]) | MIC (Candida albicans [5]) | MIC (Saccharomyces cerevisiae [8]) | MIC (Staphylococcus aureus [12]) | Compound | inhibition in vivo at 50 mg/kg (Rattus norvegicus [1]) | zone of inhibition at 4000 µg/mL (Bacillus subtilis [2]) | inhibition in vivo at 50 mg/kg (Rattus norvegicus [3]) | diameter of the inhibition zone (DIZ) (Candida albicans [6]) | inhibition in vivo at 50 mg/kg (Rattus norvegicus [7]) | Activity (Pseudomonas aeruginosa) | inhibition in vivo at 50 mg/kg (Rattus norvegicus [9]) | zone of inhibition at 4000 µg/mL (Staphylococcus aureus [10]) | diameter of the inhibition zone (DIZ) (Saccharomyces cerevisiae [11]) | Activity (Escherichia coli) | further results
4 | 128 µg/mL (≈ 281 µM) | inactive | inactive | 256 µg/mL (≈ 562 µM) | COc1ccc(C2CC(c3ccc(F)cc3)=NN2c2ccc(S(N)(=O)=O)cc2)cc1OC (configuration not stated) | 62.8% | 15.3 mm | 53.1% | inactive | 62.3% | inactive | 53.5% | 14 mm | inactive | inactive | 
5 | 64 µg/mL (≈ 136 µM) |  |  | 64 µg/mL (≈ 136 µM) | COc1ccc(C2CC(c3ccc(Cl)cc3)=NN2c2ccc(S(N)(=O)=O)cc2)c(OC)c1 (configuration not stated) | 57.2% | 19.3 mm | 32.9% |  | 43.5% | inactive | 48.8% | 18.3 mm |  | inactive | MIC (Candida albicans [5]; MTCC 227, 24 h): 128 µg/mL (≈ 271 µM); zone of inhibition at 4000 µg/mL (Candida albicans [6]): 13.6 mm; MIC (Saccharomyces cerevisiae [8]; MTCC 170, 24 h): 64 µg/mL (≈ 136 µM); zone of inhibition at 4000 µg/mL (Saccharomyces cerevisiae [11]): 16 mm
6 | 128 µg/mL (≈ 281 µM) | inactive | inactive | 128 µg/mL (≈ 281 µM) | COc1ccc(C2CC(c3ccc(F)cc3)=NN2c2ccc(S(N)(=O)=O)cc2)c(OC)c1 (configuration not stated) | 47.7% | 16.3 mm | 47.9% | inactive | 63.7% | inactive | 35.4% | 15.3 mm | inactive | inactive | 
7 | 256 µg/mL (≈ 562 µM) | inactive | inactive | > 256 µg/mL | COc1cc(OC)cc(C2CC(c3ccc(F)cc3)=NN2c2ccc(S(N)(=O)=O)cc2)c1 (configuration not stated) | 51.1% | 13.6 mm | 50% | inactive | 49.3% | inactive | 33.1% | 12.6 mm | inactive | inactive | 
8 | 128 µg/mL (≈ 271 µM) | inactive | inactive | 256 µg/mL (≈ 542 µM) | COc1ccc(C2CC(c3ccc(Cl)cc3)=NN2c2ccc(S(N)(=O)=O)cc2)cc1OC (configuration not stated) | 68.3% | 17.3 mm | 49.5% | inactive | 57.9% | inactive | 64.6% | 13.6 mm | inactive | inactive | 
